Data published in patent publication US8492515B2 (priority 2008, dated 2013).
pIC50: −log10 of the molar value. Converted amounts (≈) assume the structure as drawn. Square brackets hold non-standard residues; d marks the D form. Peptide text beside a SMILES is read from it. Ac6c = NC1(C(=O)O)CCCCC1

How the values were obtained:
[1] = Gross necropsy of surviving mice three days post-infection; format: in vivo, CD-1 mice; conditions: 10 or 20 mg/kg ip
Description: As peptide drugs, such as antimicrobial peptides, are predominantly cleared through the kidneys (Klootwijk et al., 1997. J. Clin. Endocrinol. Metab. 82: 3068-3073) and the kidney functions of mice are 20-fold faster than those of humans, CD-1 female mice of 15-20 g were pretreated with 18 mg/kg cisplatin for 3 days to impair kidney clearance similar to the levels observed in humans (Mathe et al., 2006. Lab. Anim. 40: 296-300) before they were challenged intraperitoneally (ip) with 10^8 CFU per g mouse of an extended-spectrum β-lactamase producing E. coli strain (designation 5770). Four, 8 and 12 hours after challenge 10 or 20 mg/kg peptide Chex1-Arg20 or 40 mg/kg imipenem (as a positive control) were administered ip to 10 mice in each group. Imipenem is a broad spectrum β-lactam antibiotic. Prior to drug administration at all three timepoints, blood was taken from the tail vein of 3-5 mice for determining blood bacterial counts. […] Antimicrobials were administered ip 4 hours after challenge 3 times in 4 hour intervals. Blood was taken immediately before antimicrobial treatments. Numbers in parentheses indicate the number of mice with <10^3 CFU/mL. Bacterial counts were determined 10 times from different dilution of blood from 5 mice in each group in each timepoints.
The skin was smooth, and healthy liver, lungs, spleen and kidneys were registered.

E. coli HK101 = conditions: quarter strength Mueller-Hinton broth, overnight, 37° C.
Excerpt: To investigate the activity of the A3-APO metabolites, Chex1-Arg20 single chain unit and an Arg7-Arg20 common cleavage fragment were synthesized and […], a true measure of potential clinical viability (Otvos et al., 2005. J. Med. Chem. 48: 5349-5359). The peptides of the invention were made on a CEM Liberty automated synthesizer with standard Fmoc-chemistry. The peptides were detached from the resin with the carboxyl terminus of the C-terminal Arg residue being in the form of an amino amide, —C(O)—NH2 (“Chex1-Arg20-NH2” and “Arg7-Arg20-NH2”), while still in the microwave chamber, and were purified by RP-HPLC. […] The biological studies carried out on chemically synthesized peptides in this example and succeeding examples were carried out on the C-terminal modified versions of the peptides wherein the C-terminal carboxylic acid function was in the form of an amide, —C(O)—NH2. […] The cell concentrations were estimated by measuring the ultraviolet absorbance at 600 nm and applying the formula cfu/mL=A600(3.8×10^8), where cfu is the number of colony-forming units. […] Cultures were then incubated at 37° C., 5% CO2 for 16-20 h without shaking, and growth inhibition was measured by recording the absorbance at 600 nm using a microplate reader. […]
Following the protocol of Example 2, minimal inhibitory concentrations of the Chex1-Arg20 peptide against selected bacteria was determined. […]

[2] = test system: Klebsiella pneumoniae isolates
Excerpt: (§1) To investigate the activity of the A3-APO metabolites, Chex1-Arg20 single chain unit and an Arg7-Arg20 common cleavage fragment were synthesized and studied for their ability to kill Enterobacteriaceae strains in undiluted Muller-Hinton broth, a true measure of potential clinical viability (Otvos et al., 2005. J. Med. Chem. 48: 5349-5359). The peptides of the invention were made on a CEM Liberty automated synthesizer with standard Fmoc-chemistry. The peptides were detached from the resin with the carboxyl terminus of the C-terminal Arg residue being in the form of an amino amide, —C(O)—NH2 (“Chex1-Arg20-NH2” and “Arg7-Arg20-NH2”), while still in the microwave chamber, and were purified by RP-HPLC. […] The biological studies carried out on chemically synthesized peptides in this example and succeeding examples were carried out on the C-terminal modified versions of the peptides wherein the C-terminal carboxylic acid function was in the form of an amide, —C(O)—NH2. Antibacterial growth inhibition assays were performed using sterile 96-well polypropylene plates (Nunc F96 microtiter plates) in a final volume of 100 μL as described previously (Cudic et al., 2002. Peptides 23: 271-283). The cell concentrations were estimated by measuring the ultraviolet absorbance at 600 nm and applying the formula cfu/mL=A600(3.8×10^8), where cfu is the number of colony-forming units. Briefly, 50 μL of a suspension of midlogarithmic phase bacterial cultures diluted to 5×10^5 cfu/mL in Muller-Hinton broth (MHB) was added to 50 μL of serially diluted peptides also dissolved in MHB. The final peptide concentration was 128 μg/mL. Cultures were then incubated at 37° C., 5% CO2 for 16-20 h without shaking, and growth inhibition was measured by recording the absorbance at 600 nm using a microplate reader. […] The minimal inhibitory concentration indicates the lowest peptide dose where no visible bacterial growth is detected after 16 hours incubation in full strength Muller-Hinton broth at 37° C. The peptide Chex-pyrr-Dap dimer was also included in the study. […] (Cudic et al., 2002. Peptides 23: 271-283).

[3] = test system: Enterobacteriaceae strains
Excerpt: as §1

K. pneumoniae HK123 = conditions: HK123, 16 h
Excerpt: as §1

E. coli HK179 = conditions: HK179, 16 h
Excerpt: as §1

E. coli SEQ102 = conditions: SEQ102, 16 h
Excerpt: as §1

S. typhimurium G10215 = conditions: G10215, 16 h
Excerpt: as §1

E. coli D31 = conditions: full strength Muller-Hinton broth, 16 hours, 37° C.
Excerpt: as §1

K. pneumoniae HK 186 = test system: K. pneumoniae HK 186
Excerpt: as §1
(§2) Following the protocol of Example 2, minimal inhibitory concentrations of the Chex1-Arg20 peptide against selected bacteria was determined. […] A3-APO was included for comparison.

P. aeruginosa 10 = test system: P. aeruginosa 10
Excerpt: as §1, §2

[4] = test system: A. baumannii ATCC BBA-1605
Excerpt: as §1, §2

In the case of `CC(C)C[C@H](NC(=O)[C@H](Cc1ccc(O)cc1)NC(=O)[C@@H]1CCCN1C(=O)[C@H](CCCNC(=N)N)NC(=O)[C@@H]1CCCN1C(=O)[C@H](CCCCN)NC(=O)[C@H](CC(=O)O)NC(=O)[C@@H]1CCCN1C(=O)[C@H](CCCNC(=N)N)NC(=O)C1(N)CCCCC1)C(=O)N1CCC[C@H]1C(=O)N[C@@H](CCCNC(=N)N)C(=O)N1CCC[C@H]1C(=O)N[C@@H](CCCNC(=N)N)C(=O)N1CCC[C@H]1C(=O)N1CCC[C@H]1C(=O)N[C@@H](CCCNC(=N)N)C(=O)N1CCC[C@H]1C(=O)N[C@H](C(=O)N[C@@H](CCCNC(=N)N)C(=O)O)C(C)C` [Chex1-Arg20, Chex-Arg-Pro-Asp-Lys-Pro-Arg-Pro-Tyr-Leu-Pro-Arg-Pro-Arg--Pro-Pro-Arg-Pro-Val-Arg] (H-[Ac6c]RPDKPRPYLPRPRPPRPVR-OH; N-terminus and C-terminus assumed), the “internal bleeding (hemolysis)” value [1] was “no signs of internal bleeding”, the “signs of toxicity at gross necropsy” value [1] was “no signs of toxicity” and the “MIC, E. coli HK101” value (E. coli HK101) was 0.5 µg/mL (≈ 0.202 µM). For the same compound, the “minimal bactericidal concentrations (MBC)” value [2] was 8 µg/mL (≈ 3.23 µM), the pIC50 [3] was 6.30 to 7.00 and the “activity relative to A3-APO in milligram/L terms” value ([3]; on average) was “twice as active”. For the same compound, the “activity relative to A3-APO in molar terms” value ([3]; on average) was 5 times, the “potency in killing resistant bacteria relative to A3-APO” value ([3]; overall, Table 3) was “twice as potent” and the “MIC against K. pneumoniae HK123” value (K. pneumoniae HK123) was 8 µg/mL (≈ 3.23 µM). The “MIC against E. coli HK179” value (E. coli HK179) was 2 µg/mL (≈ 0.808 µM), the “MIC against E. coli SEQ102” value (E. coli SEQ102) was 32 µg/mL (≈ 12.9 µM) and the “MIC against S. typhimurium G10215” value (S. typhimurium G10215) was 4 µg/mL (≈ 1.62 µM). The “MIC against E. coli D31” value (E. coli D31) was 8 µg/mL (≈ 3.23 µM), the “MIC, K. pneumoniae HK 186” value (K. pneumoniae HK 186) was 0.25 µg/mL (≈ 0.101 µM) and the “MIC, P. aeruginosa 10” value (P. aeruginosa 10) was 32 µg/mL (≈ 12.9 µM). For the same compound, the “MIC, A. baumannii ATCC BBA-1605” value [4] was 16 µg/mL (≈ 6.46 µM).
